ChEMBL document CHEMBL4177562, “Synthetic ligand promotes gene expression by affecting GC sequence in promoter” (2017)
Active and inactive are the calls of the source. No cut-off for these calls is given here.

What was measured:
HeLa [1] = assay: Upregulation of GCNA mRNA expression in human HeLa cells at 0.1 uM after 24 hrs by RT-qPCR analysis; type: functional, cell-based
HeLa [2] = assay: Upregulation of NBPF10 mRNA expression in human HeLa cells at 0.1 uM after 24 hrs by RT-qPCR analysis; type: functional, cell-based
HeLa [3] = assay: Upregulation of OASL mRNA expression in human HeLa cells at 0.1 uM after 24 hrs by RT-qPCR analysis; type: functional, cell-based
HeLa [4] = assay: Upregulation of IFIT2 mRNA expression in human HeLa cells at 0.1 uM after 24 hrs by RT-qPCR analysis; type: functional, cell-based
HeLa [5] = assay: Upregulation of SULT4A1 mRNA expression in human HeLa cells at 0.1 uM after 24 hrs by RT-qPCR analysis; type: functional, cell-based
HeLa [6] = assay: Downregulation of STK39 mRNA expression in human HeLa cells at 0.1 uM after 24 hrs by RT-qPCR analysis; type: functional, cell-based
HeLa [7] = assay: Downregulation of CERS5 mRNA expression in human HeLa cells at 0.1 uM after 24 hrs by RT-qPCR analysis; type: functional, cell-based
HeLa [8] = assay: Downregulation of COQ9 mRNA expression in human HeLa cells at 0.1 uM after 24 hrs by RT-qPCR analysis; type: functional, cell-based
HeLa [9] = assay: Upregulation of nucleus-related genes (GO:0005634) in human HeLa cells measured at 12 hrs; type: functional
HeLa [10] = assay: Upregulation of nucleoplasm-related genes (GO:0005654) in human HeLa cells measured at 12 hrs; type: functional
HeLa [11] = assay: Upregulation of transcription/DNA-templated-related genes (GO:0006351) in human HeLa cells measured at 12 hrs; type: functional
HeLa [12] = assay: Upregulation of cytoplasm-related genes (GO:0005737) in human HeLa cells measured at 12 hrs; type: functional
HeLa [13] = assay: Upregulation of negative regulation of inclusion body assembly-related genes (GO:0090084) in human HeLa cells measured at 12 hrs; type: functional
HeLa [14] = assay: Upregulation of microtubule cytoskeleton-related genes (GO:0015630) in human HeLa cells measured at 24 hrs; type: functional
HeLa [15] = assay: Upregulation of cytoplasm-related genes (GO:0005737) in human HeLa cells measured at 24 hrs; type: functional
HeLa [16] = assay: Upregulation of mitotic nuclear division-related genes (GO:0007067) in human HeLa cells measured at 24 hrs; type: functional
HeLa [17] = assay: Upregulation of spindle midzone-related genes (GO:0051233) in human HeLa cells measured at 24 hrs; type: functional
HeLa [18] = assay: Upregulation of nucleolus-related genes (GO:0005730) in human HeLa cells measured at 24 hrs; type: functional
HeLa [19] = assay: Upregulation of spindle midzone-related genes (GO:0051233) in human HeLa cells measured at 12 to 24 hrs; type: functional
HeLa [20] = assay: Upregulation of cytoplasm-related genes (GO:0005737) in human HeLa cells measured at 12 to 24 hrs; type: functional
HeLa [21] = assay: Upregulation of positive regulation of cytokinesis-related genes (GO:0032467) in human HeLa cells measured at 12 to 24 hrs; type: functional
HeLa [22] = assay: Downregulation of mitochondrial matrix-related genes (GO:0005759) in human HeLa cells measured at 12 hrs; type: functional
HeLa [23] = assay: Downregulation of primary cilium-related genes (GO:0072372) in human HeLa cells measured at 12 hrs; type: functional
HeLa [24] = assay: Downregulation of peroxisome-related genes (GO:0005777) in human HeLa cells measured at 12 hrs; type: functional
HeLa [25] = assay: Downregulation of serine C-palmitoyltransferase complex-related genes (GO:0017059) in human HeLa cells measured at 12 hrs; type: functional
HeLa [26] = assay: Downregulation of ciliary tip-related genes (GO:0097542) in human HeLa cells measured at 12 hrs; type: functional
HeLa [27] = assay: Downregulation of proteinaceous extracellular matrix-related genes (GO:0005578) in human HeLa cells measured at 24 hrs; type: functional
HeLa [28] = assay: Downregulation of extracellular region-related genes (GO:0005576) in human HeLa cells measured at 24 hrs; type: functional
HeLa [29] = assay: Downregulation of extracellular exosome-related genes (GO:0070062) in human HeLa cells measured at 24 hrs; type: functional
HeLa [30] = assay: Downregulation of cell periphery-related genes (GO:0071944) in human HeLa cells measured at 24 hrs; type: functional
HeLa [31] = assay: Downregulation of progesterone metabolic process-related genes (GO:0042448) in human HeLa cells measured at 24 hrs; type: functional
HeLa [32] = assay: Downregulation of oxidation-reduction process-related genes (GO:0055114) in human HeLa cells measured at 12 to 24 hrs; type: functional; parameters: scale not given: the % may be the effect or the level left
HeLa [33] = assay: Downregulation of apical plasma membrane-related genes (GO:0016324) in human HeLa cells measured at 12 to 24 hrs; type: functional
HeLa [34] = assay: Downregulation of skin development-related genes (GO:0043588) in human HeLa cells measured at 12 to 24 hrs; type: functional
[35] = Binding affinity to TGGC of 5'-Biotinylated-dCAG CGT GTG GTT TTT GGCTTT ACC ACA CGC TG-3' (unknown origin) after 30 secs by SPR analysis
[36] = Binding affinity to CGGT of 5'-Biotinylated-dCAG CGT GTG GTT TTC GGTTTT ACC ACA CGC TG-3' (unknown origin) after 30 secs by SPR analysis
[37] = Binding affinity to GGGC of 5'-Biotinylated-dCAG CGT GTG GTT TTG GGCTTT ACC ACA CGC TG-3' (unknown origin) after 30 secs by SPR analysis
[38] = Binding affinity to GCGG of 5'-Biotinylated-dCAG CGT GTG GTT TTG CGGTTT ACC ACA CGC TG-3' (unknown origin) after 30 secs by SPR analysis
[39] = Binding affinity to GGGG of 5'-Biotinylated-dCAG CGT GTG GTT TTG GGGTTT ACC ACA CGC TG-3' (unknown origin) after 30 secs by SPR analysis
[40] = Binding affinity to CGGG of 5'-Biotinylated-dCAG CGT GTG GTT TTC GGGTTT ACC ACA CGC TG-3' (unknown origin) after 30 secs by SPR analysis
[41] = Binding affinity to TCTT of 5'-Biotinylated-dCAG CGT GTG GTT TTT CTTTTT ACC ACA CGC TG-3' (unknown origin) at 1.25 to 20 nM after 30 secs by SPR analysis
[42] = Binding affinity to TTTT of 5'-Biotinylated-dCAG CGT GTG GTT TTT TTTTTT ACC ACA CGC TG-3' (unknown origin) at 1.25 to 20 nM after 30 secs by SPR analysis
[43] = Binding affinity to AAAA of 5'-Biotinylated-dCAG CGT GTG GTT TTA AAATTT ACC ACA CGC TG-3' (unknown origin) at 1.25 to 20 nM after 30 secs by SPR analysis
[44] = Binding affinity to TTTA of 5'-Biotinylated-dCAG CGT GTG GTT TTT TTATTT ACC ACA CGC TG-3' (unknown origin) at 1.25 to 20 nM after 30 secs by SPR analysis
[45] = Binding affinity to CACA of 5'-Biotinylated-dCAG CGT GTG GTT TTC ACATTT ACC ACA CGC TG-3' (unknown origin) at 1.25 to 20 nM after 30 secs by SPR analysis
[46] = Binding affinity to ATTT of 5'-Biotinylated-dCAG CGT GTG GTT TTA TTTTTT ACC ACA CGC TG-3' (unknown origin) at 1.25 to 20 nM after 30 secs by SPR analysis
[47] = Binding affinity to GCGG of 5'-Biotinylated-dCAG CGT GTG GTT TTG C(Me)GGTTT ACC ACA CGC TG-3' (unknown origin) at 1.25 to 20 nM after 30 secs by SPR analysis

**Q.** Which Activity (HeLa [1]) does the source give for Cc1ccc2ccc(NC(=O)OCCCN(CCCCCCCCN(CCCOC(=O)Nc3ccc4ccc(C)nc4n3)CCCOC(=O)Nc3ccc4ccc(C)nc4n3)CCCOC(=O)Nc3ccc4ccc(C)nc4n3)nc2n1 here?
**A.** Active

**Q.** And the Activity (HeLa [2])?
**A.** Active

**Q.** And the Activity (HeLa [3])?
**A.** Active

**Q.** What about the Activity (HeLa [4]) of the same molecule?
**A.** Active

**Q.** And the Activity (HeLa [5])?
**A.** Active

**Q.** What about the Activity (HeLa [6]) of the same molecule?
**A.** Active

**Q.** And the Activity (HeLa [7])?
**A.** Active

**Q.** And the Activity (HeLa [8])?
**A.** Active

**Q.** What about the Activity (HeLa [9]) of the same molecule?
**A.** 43.78%

**Q.** And the Activity (HeLa [10])?
**A.** 26.27%

**Q.** What about the Activity (HeLa [11]) of the same molecule?
**A.** 20.28%

**Q.** And the Activity (HeLa [12])?
**A.** 34.56%

**Q.** What about the Activity (HeLa [13]) of the same molecule?
**A.** 2.3%

**Q.** What about the Activity (HeLa [14]) of the same molecule?
**A.** 4.62%

**Q.** What about the Activity (HeLa [15]) of the same molecule?
**A.** 33.85%

**Q.** And the Activity (HeLa [16])?
**A.** 7.69%

**Q.** What about the Activity (HeLa [17]) of the same molecule?
**A.** 3.08%

**Q.** What about the Activity (HeLa [18]) of the same molecule?
**A.** 9.23%

**Q.** What about the Activity (HeLa [19]) of the same molecule?
**A.** 5.56%

**Q.** And the Activity (HeLa [20])?
**A.** 33.33%

**Q.** And the Activity (HeLa [21])?
**A.** 5.55%

**Q.** What about the Activity (HeLa [22]) of the same molecule?
**A.** 3.74%

**Q.** And the Activity (HeLa [23])?
**A.** 2.14%

**Q.** What about the Activity (HeLa [24]) of the same molecule?
**A.** 2.14%

**Q.** And the Activity (HeLa [25])?
**A.** 1.07%

**Q.** And the Activity (HeLa [26])?
**A.** 1.6%

**Q.** What about the Activity (HeLa [27]) of the same molecule?
**A.** 12.24%

**Q.** What about the Activity (HeLa [28]) of the same molecule?
**A.** 22.45%

**Q.** What about the Activity (HeLa [29]) of the same molecule?
**A.** 24.49%

**Q.** And the Activity (HeLa [30])?
**A.** 4.08%

**Q.** And the Activity (HeLa [31])?
**A.** 4.08%

**Q.** What about the Activity (HeLa [32]) of the same molecule?
**A.** 16.67%

**Q.** And the Activity (HeLa [33])?
**A.** 10%

**Q.** What about the Activity (HeLa [34]) of the same molecule?
**A.** 6.67%

**Q.** And the Activity [35]?
**A.** Dose-dependent effect

**Q.** What about the Activity [36] of the same molecule?
**A.** Dose-dependent effect

**Q.** And the Activity [37]?
**A.** Dose-dependent effect

**Q.** What about the Activity [38] of the same molecule?
**A.** Dose-dependent effect

**Q.** And the Activity [39]?
**A.** Dose-dependent effect

**Q.** What about the Activity [40] of the same molecule?
**A.** Dose-dependent effect

**Q.** And the Activity [41]?
**A.** inactive

**Q.** And the Activity [42]?
**A.** inactive

**Q.** What about the Activity [43] of the same molecule?
**A.** inactive

**Q.** What about the Activity [44] of the same molecule?
**A.** inactive

**Q.** And the Activity [45]?
**A.** inactive

**Q.** What about the Activity [46] of the same molecule?
**A.** inactive

**Q.** And the Activity [47]?
**A.** inactive
